# “Also recorded” adds a separate entry of the source. Where two headings read alike, the source gives them in different places.
# Legend:
# [1] = target: mu-opioid receptor (MOR) (Homo sapiens (Human), UniProt P35372); assay: cell-based
# [2] = tested on: DOR; assay: cAMP assay (adenylyl cyclase inhibition) in HEK-DOR cells; format: cell-based; conditions: in the presence of naloxone (20 nM)
# Procedure: Human embryonic kidney 293 (HEK-293) cells constitutively expressing MOR (HEK-MOR) and DOR (HEK-DOR) (kindly provided by Dr. Ping-Yee Law, University of Minnesota, USA) were cultured in high-glucose Dulbecco's modified Eagle's medium (DMEM, GIBCO) supplemented with 400 μg/mL G418 (Sigma), 2 mM L-glutamine and P/S/F (100 units/mL penicillin, 100 μg/mL streptomycin, 10% fetal bovine serum). Chinese hamster ovary (CHO)-K1 cells, stably expressing hMOR and Gα15 (CHO-K1/MOR/Gα15), were cultured in F12 medium (GIBCO) supplemented with 10 μg/mL Hygromycin B (Invivogen), 20 μg/mL Zeocin (Invivogen) P/S/F (100 units/mL penicillin, 100 μg/mL streptomycin, 10% fetal bovine serum). The cultures were incubated at 37° C. in a humidified 5% CO2 incubator.
# Briefly, 2000 HEK-MOR cells or HEK-DOR cells were plated in 10 μL/well of DMEM in 96-well solid bottom white plates and 10 μL/well compound in HBSS in the presence with 1 μM forskolin and 100 μM 3-isobutyl-1-methylxanthine (IBMX). After 30 minutes of incubation at room temperature, 10 μL/well of labeled d2-cAMP and 10 μL/well of anti-cAMP antibody (both diluted in lysis buffer) were added to each well. Two hours later, plates were measured using the FlexStationIII (Molecular Devices Corp.) with excitation at 330 nm and emissions of 620 nm and 665 nm.
# To characterize of novel opioid receptor AAMs, the activity and selectivity of compound 58 were tested by inhibiting adenylyl cyclase activity (i.e., cAMP assay).
# Opoid receptors inhibit adenylyl cyclase activity through Gi/o family of heterotrimeric G proteins. A cAMP-accumulation assay was performed to determine whether opioid receptor AAMs affect a G protein-dependent signaling pathway.
# mu-opioid receptor (MOR), sequence (P35372 whole entry): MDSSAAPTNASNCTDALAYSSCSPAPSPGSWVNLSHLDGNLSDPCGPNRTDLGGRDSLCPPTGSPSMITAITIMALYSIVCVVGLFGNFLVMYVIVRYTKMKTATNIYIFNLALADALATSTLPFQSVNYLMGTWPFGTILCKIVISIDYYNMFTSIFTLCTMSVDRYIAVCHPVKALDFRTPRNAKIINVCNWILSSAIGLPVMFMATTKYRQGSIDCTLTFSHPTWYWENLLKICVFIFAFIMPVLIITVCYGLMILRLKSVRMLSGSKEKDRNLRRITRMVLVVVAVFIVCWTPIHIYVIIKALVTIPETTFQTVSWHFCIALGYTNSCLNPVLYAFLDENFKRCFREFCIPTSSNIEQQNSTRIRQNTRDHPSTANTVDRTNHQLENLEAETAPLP
smiles,measurement,setting,value
Cc1cc(C(=O)O)ccc1N1C(=O)CSC1c1ccc(F)cc1 (stereo not drawn),EC50,"[1]; co-administrated with naloxone (20 nM), read-out: EC50 of calcium release",1300 nM
same,activity combined with peptide MOR antagonist CTOP,[1]; combination with CTOP,no activity was observed
same,AUC,[1]; combined with Cyprodime hydrochloride 500 nM,7893
same,EC50,"[1]; combined with Cyprodime hydrochloride 500 nM, read-out: EC50",5120 ± 2520 nM
same,AUC,[1]; combined with Nalmefene 20 nM,8506
same,AUC,[1]; combined with Naloxonazine dihydrochloride 20 nM,11819.33
same,EC50,"[1]; combined with Naloxonazine dihydrochloride 20 nM, read-out: EC50",642 nM
same,AUC,[1]; combined with Naltrexone 20 nM,12980.33
same,EC50,"[1]; combined with Naltrexone 20 nM, read-out: EC50",630 ± 217 nM
same,AUC,[1]; combined with Samidorphan 10 nM,13179
same,EC50,"[1]; combined with Samidorphan 10 nM, read-out: EC50",5530 nM
same,AUC,[1]; combined with Samidorphan 20 nM,14094
same,EC50,"[1]; combined with Samidorphan 20 nM, read-out: EC50",5270 nM
same,FLIPR Ca^2+ AUC,[1]; combined with a MOR antagonist,16361
same,EC50,"[1]; combined with a MOR antagonist, read-out: FLIPR Ca^2+ EC50",1100 nM
same,AAM effect with naltrexone,"[1]; combined with naltrexone, compared with naloxone","worked as an AAM of naltrexone, with similar potency but a higher magnitude of efficacy"
same,calcium release in the presence of an opioid antagonist,[1]; combined with one of the listed opioid antagonists,induced significant calcium release
same,AUC,[1]; combined with β-Funaltrexamine hydrochloride 20 nM,8553.5
same,EC50,"[1]; combined with β-Funaltrexamine hydrochloride 20 nM, read-out: EC50",346 ± 209 nM
same,response on its own (calcium release),"[1]; compound alone, no antagonist",did not show responses on their own; also recorded: did not elicit any response on its own
same,effect on Emax and potency of morphine (PAM/NAM test),"[1]; morphine CRC with compound at 30, 10, 3.3 μM",neither Emax nor potency of morphine was significantly altered
same,calcium release in the presence of naloxone,[1]; naloxone (25 nM),induced a significant calcium release
same,"effect on concentration-response curve of naloxone (Emax, potency)",[1]; naloxone CRC with compound at different concentrations,both Emax and potency of naloxone were altered
same,effect on adenylyl cyclase activity,[2],produced no effect

# Reference: patent US10544113B2 (priority 2016, dated 2020)
